Measured values reported in ChEMBL document CHEMBL5649169 (ChemMedChem, 2018).

Columns and labels:
[1] = target: Dual specificity mitogen-activated protein kinase kinase 2 (Homo sapiens) (UniProt P36507)
[2] = target: Succinate dehydrogenase [ubiquinone] flavoprotein subunit, mitochondrial (Homo sapiens) (UniProt P31040)
[3] = target: Citron Rho-interacting kinase (Homo sapiens) (UniProt O14578)
[4] = target: PCI domain-containing protein 2 (Homo sapiens) (UniProt Q5JVF3)
[5] = target: Translocon-associated protein subunit gamma (Homo sapiens) (UniProt Q9UNL2)
[6] = target: Enoyl-CoA delta isomerase 1, mitochondrial (Homo sapiens) (UniProt P42126)
Enoyl-CoA delta isomerase 1, mitochondrial (Homo sapiens), sequence (P42126 whole entry): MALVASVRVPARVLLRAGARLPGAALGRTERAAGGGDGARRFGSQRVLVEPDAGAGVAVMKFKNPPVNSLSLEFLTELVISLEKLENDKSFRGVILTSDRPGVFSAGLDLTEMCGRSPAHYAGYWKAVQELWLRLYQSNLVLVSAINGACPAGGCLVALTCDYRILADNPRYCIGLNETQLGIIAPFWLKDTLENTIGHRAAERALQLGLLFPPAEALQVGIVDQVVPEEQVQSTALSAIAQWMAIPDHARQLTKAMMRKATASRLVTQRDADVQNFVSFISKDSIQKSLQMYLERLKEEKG

[7] = target: Endoplasmin (Homo sapiens) (UniProt P14625)
[8] = target: N-alpha-acetyltransferase 15, NatA auxiliary subunit (Homo sapiens) (UniProt Q9BXJ9)
[9] = target: Sister chromatid cohesion protein PDS5 homolog A (Homo sapiens) (UniProt Q29RF7)
Homo sapiens [10] = organism: Homo sapiens
[11] = target: Keratin, type I cytoskeletal 18 (Homo sapiens) (UniProt P05783)
[12] = target: Serine/threonine-protein kinase/endoribonuclease IRE2 (Homo sapiens) (UniProt Q76MJ5)
[13] = target: Tyrosine-protein kinase Fyn (Homo sapiens) (UniProt P06241)
[14] = target: Nuclear pore complex protein Nup93 (Homo sapiens) (UniProt Q8N1F7)
[15] = target: Aromatic-L-amino-acid decarboxylase (Homo sapiens) (UniProt P20711)
[16] = target: Membrane-associated tyrosine- and threonine-specific cdc2-inhibitory kinase (Homo sapiens) (UniProt Q99640)
[17] = target: Serine/threonine-protein kinase 4 (Homo sapiens) (UniProt Q13043)
[18] = target: Actin-related protein 2 (Homo sapiens) (UniProt P61160)
[19] = target: Small ribosomal subunit protein uS15 (Homo sapiens) (UniProt P62277)
[20] = target: Clathrin heavy chain 1 (Homo sapiens) (UniProt Q00610)
[21] = target: Transportin-1 (Homo sapiens) (UniProt Q92973)
Transportin-1 (Homo sapiens), sequence (Q92973 whole entry): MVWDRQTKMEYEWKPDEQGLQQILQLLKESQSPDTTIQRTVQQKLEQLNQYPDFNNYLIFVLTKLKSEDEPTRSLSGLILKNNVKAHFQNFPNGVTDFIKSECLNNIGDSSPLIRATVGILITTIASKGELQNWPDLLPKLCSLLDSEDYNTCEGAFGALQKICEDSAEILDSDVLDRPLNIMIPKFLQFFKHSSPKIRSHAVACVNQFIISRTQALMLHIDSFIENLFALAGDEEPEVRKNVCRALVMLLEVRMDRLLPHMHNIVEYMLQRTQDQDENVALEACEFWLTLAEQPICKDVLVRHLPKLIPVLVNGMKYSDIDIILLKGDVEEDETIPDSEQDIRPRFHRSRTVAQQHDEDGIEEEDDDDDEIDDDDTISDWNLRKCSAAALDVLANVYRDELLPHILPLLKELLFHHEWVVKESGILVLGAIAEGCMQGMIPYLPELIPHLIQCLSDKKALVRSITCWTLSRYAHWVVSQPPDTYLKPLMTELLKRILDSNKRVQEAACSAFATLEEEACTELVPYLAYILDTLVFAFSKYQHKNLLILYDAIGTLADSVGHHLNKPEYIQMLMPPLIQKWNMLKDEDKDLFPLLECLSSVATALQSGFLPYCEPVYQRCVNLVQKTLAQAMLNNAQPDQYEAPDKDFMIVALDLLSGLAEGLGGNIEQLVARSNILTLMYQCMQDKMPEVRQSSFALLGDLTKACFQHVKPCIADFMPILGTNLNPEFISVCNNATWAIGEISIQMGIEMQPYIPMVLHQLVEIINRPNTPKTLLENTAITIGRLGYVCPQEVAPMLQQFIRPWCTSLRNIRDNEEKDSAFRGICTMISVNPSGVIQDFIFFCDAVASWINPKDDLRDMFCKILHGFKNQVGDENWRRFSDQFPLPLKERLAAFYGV

[22] = target: Large ribosomal subunit protein uL2 (Homo sapiens) (UniProt P62917)
[23] = target: Secretory carrier-associated membrane protein 3 (Homo sapiens) (UniProt O14828)
[24] = target: SERPINE1 mRNA-binding protein 1 (Homo sapiens) (UniProt Q8NC51)
[25] = target: BMP-2-inducible protein kinase (Homo sapiens) (UniProt Q9NSY1)
[26] = target: Exocyst complex component 1 (Homo sapiens) (UniProt Q9NV70)
Exocyst complex component 1 (Homo sapiens), sequence (Q9NV70 whole entry, one chain of several): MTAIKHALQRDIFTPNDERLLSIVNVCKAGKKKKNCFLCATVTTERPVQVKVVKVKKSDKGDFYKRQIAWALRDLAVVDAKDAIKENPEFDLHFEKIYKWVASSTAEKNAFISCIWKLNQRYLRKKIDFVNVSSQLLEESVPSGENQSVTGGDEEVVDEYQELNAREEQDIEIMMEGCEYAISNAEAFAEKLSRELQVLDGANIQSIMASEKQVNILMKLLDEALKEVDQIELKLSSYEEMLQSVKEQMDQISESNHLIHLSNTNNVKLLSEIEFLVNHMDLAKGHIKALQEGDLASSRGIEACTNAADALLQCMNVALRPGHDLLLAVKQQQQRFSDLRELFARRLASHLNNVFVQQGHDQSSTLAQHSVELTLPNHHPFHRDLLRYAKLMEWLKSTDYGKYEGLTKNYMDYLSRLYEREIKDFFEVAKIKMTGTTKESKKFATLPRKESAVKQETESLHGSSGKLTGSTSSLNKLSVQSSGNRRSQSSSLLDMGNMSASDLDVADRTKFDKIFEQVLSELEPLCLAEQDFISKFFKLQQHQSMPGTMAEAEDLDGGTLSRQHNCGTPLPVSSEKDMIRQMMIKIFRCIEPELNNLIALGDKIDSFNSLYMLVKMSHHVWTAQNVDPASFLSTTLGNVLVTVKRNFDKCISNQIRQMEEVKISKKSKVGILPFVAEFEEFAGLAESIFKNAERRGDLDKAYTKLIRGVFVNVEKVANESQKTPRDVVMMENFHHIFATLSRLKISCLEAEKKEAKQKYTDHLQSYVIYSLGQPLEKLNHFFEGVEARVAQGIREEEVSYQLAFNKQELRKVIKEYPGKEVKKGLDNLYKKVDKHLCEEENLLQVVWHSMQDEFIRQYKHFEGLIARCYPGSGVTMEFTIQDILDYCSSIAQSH

[27] = target: UDP-glucose:glycoprotein glucosyltransferase 1 (Homo sapiens) (UniProt Q9NYU2)
[28] = target: Serine/threonine-protein phosphatase 2A 65 kDa regulatory subunit A alpha isoform (Homo sapiens) (UniProt P30153)
[29] = target: Monocarboxylate transporter 1 (Homo sapiens) (UniProt P53985)
[30] = target: TANK-binding kinase 1-binding protein 1 (Homo sapiens) (UniProt A7MCY6)
TANK-binding kinase 1-binding protein 1 (Homo sapiens), sequence (A7MCY6 whole entry): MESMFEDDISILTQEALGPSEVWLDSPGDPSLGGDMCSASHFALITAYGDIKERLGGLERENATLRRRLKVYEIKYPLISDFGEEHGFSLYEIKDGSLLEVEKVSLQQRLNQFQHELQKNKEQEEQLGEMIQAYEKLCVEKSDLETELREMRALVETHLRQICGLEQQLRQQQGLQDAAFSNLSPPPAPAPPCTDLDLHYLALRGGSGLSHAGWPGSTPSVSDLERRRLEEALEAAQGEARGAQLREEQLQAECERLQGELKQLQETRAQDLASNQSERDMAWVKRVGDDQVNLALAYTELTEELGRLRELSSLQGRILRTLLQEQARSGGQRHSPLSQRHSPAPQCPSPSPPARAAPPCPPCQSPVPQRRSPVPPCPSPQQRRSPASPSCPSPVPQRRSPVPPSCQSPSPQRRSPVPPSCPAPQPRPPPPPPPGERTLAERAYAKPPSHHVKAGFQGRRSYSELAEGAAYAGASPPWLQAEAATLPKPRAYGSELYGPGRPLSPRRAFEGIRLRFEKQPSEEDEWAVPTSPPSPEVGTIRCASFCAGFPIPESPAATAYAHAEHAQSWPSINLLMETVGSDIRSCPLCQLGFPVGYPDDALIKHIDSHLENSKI

[31] = target: Serine/threonine-protein kinase Nek2 (Homo sapiens) (UniProt P51955)
Serine/threonine-protein kinase Nek2 (Homo sapiens), sequence (P51955 whole entry): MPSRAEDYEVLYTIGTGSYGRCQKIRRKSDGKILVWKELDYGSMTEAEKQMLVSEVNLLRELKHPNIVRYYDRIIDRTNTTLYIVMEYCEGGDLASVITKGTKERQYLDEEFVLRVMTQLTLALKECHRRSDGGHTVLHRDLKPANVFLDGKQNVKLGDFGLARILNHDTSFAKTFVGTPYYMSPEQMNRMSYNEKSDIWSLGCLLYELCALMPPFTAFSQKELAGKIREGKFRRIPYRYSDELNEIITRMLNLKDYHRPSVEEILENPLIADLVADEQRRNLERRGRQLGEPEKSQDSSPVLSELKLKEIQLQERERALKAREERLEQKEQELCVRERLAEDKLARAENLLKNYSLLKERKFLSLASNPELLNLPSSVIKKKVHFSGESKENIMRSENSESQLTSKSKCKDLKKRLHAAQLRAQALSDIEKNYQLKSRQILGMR

[32] = target: Cytochrome c oxidase subunit NDUFA4 (Homo sapiens) (UniProt O00483)
[33] = target: Casein kinase I isoform delta (Homo sapiens) (UniProt P48730)
Homo sapiens [34] = organism: Homo sapiens; remark: listed apart in the source
[35] = target: Profilin-1 (Homo sapiens) (UniProt P07737)
[36] = target: KH domain-containing, RNA-binding, signal transduction-associated protein 1 (Homo sapiens) (UniProt Q07666)
[37] = target: Ketosamine-3-kinase (Homo sapiens) (UniProt Q9HA64)
[38] = target: Actin-related protein 2/3 complex subunit 1B (Homo sapiens) (UniProt O15143)
[39] = target: Thioredoxin-dependent peroxide reductase, mitochondrial (Homo sapiens) (UniProt P30048)
Thioredoxin-dependent peroxide reductase, mitochondrial (Homo sapiens), sequence (P30048 whole entry): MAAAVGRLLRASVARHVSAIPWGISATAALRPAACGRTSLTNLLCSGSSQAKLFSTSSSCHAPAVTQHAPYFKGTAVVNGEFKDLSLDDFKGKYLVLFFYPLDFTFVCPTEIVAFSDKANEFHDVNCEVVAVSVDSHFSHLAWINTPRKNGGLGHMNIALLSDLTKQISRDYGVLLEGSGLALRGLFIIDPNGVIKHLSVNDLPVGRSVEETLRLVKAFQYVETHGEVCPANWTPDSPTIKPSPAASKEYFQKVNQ

[40] = target: Prohibitin-2 (Homo sapiens) (UniProt Q99623)
[41] = target: DNA replication licensing factor MCM4 (Homo sapiens) (UniProt P33991)
[42] = target: Phosphatidylinositol 4-kinase alpha (Homo sapiens) (UniProt P42356)
Calnexin (Homo sapiens) = Calnexin (Homo sapiens) (UniProt P27824)
[43] = target: Small ribosomal subunit protein eS27 (Homo sapiens) (UniProt P42677)
[44] = target: High mobility group protein B2 (Homo sapiens) (UniProt P26583)
High mobility group protein B2 (Homo sapiens), sequence (P26583 whole entry): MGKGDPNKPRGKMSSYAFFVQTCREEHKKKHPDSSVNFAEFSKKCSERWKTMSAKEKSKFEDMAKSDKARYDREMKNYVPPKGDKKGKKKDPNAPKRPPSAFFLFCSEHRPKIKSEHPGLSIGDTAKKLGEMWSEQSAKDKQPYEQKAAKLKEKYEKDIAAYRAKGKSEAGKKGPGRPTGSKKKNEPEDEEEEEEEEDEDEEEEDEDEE

[45] = target: RNA-binding protein RO60 (Homo sapiens) (UniProt P10155)
RNA-binding protein RO60 (Homo sapiens), sequence (P10155 whole entry): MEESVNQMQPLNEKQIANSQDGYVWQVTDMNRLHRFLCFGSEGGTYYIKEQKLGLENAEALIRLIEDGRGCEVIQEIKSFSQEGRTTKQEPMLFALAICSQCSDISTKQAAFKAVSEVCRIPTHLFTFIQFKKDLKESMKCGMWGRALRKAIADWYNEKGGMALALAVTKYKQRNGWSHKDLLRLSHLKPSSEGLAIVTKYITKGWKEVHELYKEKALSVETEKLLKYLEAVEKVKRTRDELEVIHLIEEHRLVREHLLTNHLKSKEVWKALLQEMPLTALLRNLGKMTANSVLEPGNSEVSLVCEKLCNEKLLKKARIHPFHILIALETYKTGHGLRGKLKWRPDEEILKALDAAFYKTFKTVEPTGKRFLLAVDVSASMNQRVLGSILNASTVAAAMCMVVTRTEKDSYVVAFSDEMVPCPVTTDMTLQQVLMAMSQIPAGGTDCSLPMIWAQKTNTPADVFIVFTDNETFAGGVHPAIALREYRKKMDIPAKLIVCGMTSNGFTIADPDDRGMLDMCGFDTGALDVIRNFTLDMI
Further: assay method not described here.

PCI domain-containing protein 2 (Homo sapiens), sequence (Q5JVF3 whole entry, the tested form may be a part): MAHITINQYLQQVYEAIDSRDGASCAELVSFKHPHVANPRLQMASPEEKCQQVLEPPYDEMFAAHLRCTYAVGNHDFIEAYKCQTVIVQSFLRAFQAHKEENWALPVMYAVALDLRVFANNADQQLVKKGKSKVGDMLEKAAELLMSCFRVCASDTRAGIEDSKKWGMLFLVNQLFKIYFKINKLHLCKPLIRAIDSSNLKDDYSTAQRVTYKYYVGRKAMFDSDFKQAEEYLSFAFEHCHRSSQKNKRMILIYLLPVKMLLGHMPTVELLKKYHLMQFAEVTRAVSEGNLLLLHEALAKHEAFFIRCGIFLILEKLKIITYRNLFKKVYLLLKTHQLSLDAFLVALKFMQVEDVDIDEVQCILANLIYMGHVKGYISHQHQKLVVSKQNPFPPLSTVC
Dual specificity mitogen-activated protein kinase kinase 2 (Homo sapiens), sequence (P36507 whole entry): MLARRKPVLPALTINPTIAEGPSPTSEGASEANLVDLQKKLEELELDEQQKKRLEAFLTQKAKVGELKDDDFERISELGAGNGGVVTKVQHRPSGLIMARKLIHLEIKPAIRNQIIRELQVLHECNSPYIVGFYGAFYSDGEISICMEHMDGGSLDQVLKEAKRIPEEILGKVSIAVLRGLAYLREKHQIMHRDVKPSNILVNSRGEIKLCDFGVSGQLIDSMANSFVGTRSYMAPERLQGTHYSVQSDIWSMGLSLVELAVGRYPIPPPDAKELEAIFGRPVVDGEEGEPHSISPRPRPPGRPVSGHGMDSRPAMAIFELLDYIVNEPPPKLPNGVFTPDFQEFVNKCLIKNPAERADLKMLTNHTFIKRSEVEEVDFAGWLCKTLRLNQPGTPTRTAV

Cc1ccc(C(=O)Nc2cccc(C(F)(F)F)c2)cc1Nc1nc(-c2cccnc2)nc2nn(C)cc12
ED50 [1]: 2.14 µM | ED50 [2]: 2.36 µM | ED50 [3]: 15.6 µM | ED50 [4]: 1450 µM | ED50 [5]: 0.0505 µM | ED50 [6]: 64 µM | ED50 [7]: 0.0559 µM | ED50 [8]: 2.07 µM | ED50 [9]: 2.82 µM | ED50 (Homo sapiens [10]): 0.135 µM | ED50 [11]: 0.581 µM | ED50 [12]: 1.71 µM | ED50 [13]: 2.07 µM | ED50 [14]: 1.55 µM | ED50 [15]: 1.52 µM | ED50 [16]: 0.0846 µM | ED50 [17]: 0.0498 µM | ED50 [18]: 17 µM | ED50 [19]: 0.00657 µM | ED50 [20]: 0.0214 µM | ED50 [21]: 0.464 µM | ED50 [22]: 0.121 µM | ED50 [23]: 1.01 µM | ED50 [24]: 11 µM | ED50 [25]: 0.11 µM | ED50 [26]: 0.0794 µM | ED50 [27]: 0.0435 µM | ED50 [28]: 203 µM | ED50 [29]: 2.98 µM | ED50 [30]: 0.06 µM | ED50 [31]: 0.324 µM | ED50 [32]: 70.3 µM | ED50 [33]: 0.0638 µM | ED50 (Homo sapiens [34]): 0.00933 µM | ED50 [35]: 3.98 µM | ED50 [36]: 9.62 µM | ED50 [37]: 0.0183 µM | ED50 [38]: 0.0545 µM | ED50 [39]: 4.56 µM | ED50 [40]: 0.0686 µM | ED50 [41]: 0.0763 µM | ED50 [42]: 50.1 µM | ED50 (Calnexin (Homo sapiens)): 9.63 µM | ED50 [43]: 0.47 µM | ED50 [44]: 0.0527 µM | ED50 [45]: 0.0205 µM

Cc1ccc(C(=O)Nc2cccc(C(F)(F)F)c2)cc1Nc1nc(-c2cccnc2)nc2c1cnn2C
ED50 [1]: 0.0127 µM | ED50 [2]: 0.12 µM | ED50 [3]: 0.771 µM | ED50 [4]: 1.92 µM | ED50 [5]: 12.7 µM | ED50 [6]: 5.02 µM | ED50 [7]: 3.47 µM | ED50 [8]: 11.7 µM | ED50 [9]: 0.978 µM | ED50 (Homo sapiens [10]): 3.01 µM | ED50 [11]: 7.35 µM | ED50 [12]: 2.7 µM | ED50 [13]: 4.1 µM | ED50 [14]: 3.25 µM | ED50 [15]: 0.0409 µM | ED50 [16]: 0.00995 µM | ED50 [17]: 2.73 µM | ED50 [18]: 0.174 µM | ED50 [19]: 2.21 µM | ED50 [20]: 0.0189 µM | ED50 [21]: 3.81 µM | ED50 [22]: 0.0503 µM | ED50 [23]: 0.00292 µM | ED50 [24]: 0.0274 µM | ED50 [25]: 0.0018 µM | ED50 [26]: 0.0112 µM | ED50 [27]: 54.5 µM | ED50 [28]: 2 µM | ED50 [29]: 0.0482 µM | ED50 [30]: 11.4 µM | ED50 [31]: 0.011 µM | ED50 [32]: 13.5 µM | ED50 [33]: 10.4 µM | ED50 (Homo sapiens [34]): 3.03 µM | ED50 [35]: 3.95 µM | ED50 [36]: 0.118 µM | ED50 [37]: 277 µM | ED50 [38]: 115 µM | ED50 [39]: 0.164 µM | ED50 [40]: 7.38 µM | ED50 [41]: 73.3 µM | ED50 [42]: 18.6 µM | ED50 (Calnexin (Homo sapiens)): 5.64 µM | ED50 [43]: 7.65 µM | ED50 [44]: 11.3 µM | ED50 [45]: 2.18 µM
